# Patent publication US20060194856A1, “Use of atii antagonist for the treatment or prevention of metabolic syndrome” (ASTRAZENECA AB, priority 2003, published 2006)
# Several values for one entry are separate records, joined by “and”; a condition that tells them apart may be missing. Equal values may be shown once.
# Assays:
# [1] = Clinical study: metabolic syndrome diagnosed according to WHO criteria; format: in vivo, patients; details: n = 196 per group
# Description: (§1) A clinical study was performed. It was a study with a double-blind, randomised, controlled, parallel group design.
# (§2) After four weeks of single-blind treatment with placebo, the patients were randomised to double-blind treatment with either candesartan cilexetil 16 mg or hydrochlorothiazide 25 mg and followed for one year. If sitting systolic or diastolic blood pressure was above target pressure (<130/<85 mmHg, for patients below 65 years, or <140/<90 mmHg, if 65 years or older) [1999 World Health Organization (WHO)—International Society of Hypertension Guidelines for the Management of Hypertension. Journal of Hypertension 1999; 17; 151-83] at any visit during the treatment period, double-blind treatment with felodipine extended-release 2.5-5.0 mg was added to the candesartan group and atenolol 50-100 mg was added to the hydrochlorothiazide group. No further antihypertensive treatment was allowed. Two patients were withdrawn from the study, both in the candesartan cilexetil group, since their blood pressure exceeded the pre-specified safety level (≧180 and/or ≧105 mm Hg, mean of two recordings at different visits).
# The metabolic syndrome was diagnosed according to the following criteria [World Health Organization (WHO). Department of Noncommunicable Disease Surveillance. Geneva: WHO 1999 pp 1-59]: • 1. Fasting plasma glucose above 6.1 mmol/L • 2. Blood pressure above 140/90 mm Hg • 3. One or more of the following: • a. plasma triglycerides above 1.7 mmol/L and/or HDL below 0.9 mmol/L (men), below 1.0 mmol/L (women) • b. Body mass index above 30 kg/m^2 Statistical Analyses
# [2] = Double-blind randomised clinical study: sitting blood pressure and heart rate; format: in vivo, patients; details: for patients who attained a blood pressure <140/<90 mm Hg: after one year; for SBP, mean change / DBP, mean change / Heart rate, mean change: sitting, mean (SD)
# Description: as §1
# For inclusion, sitting blood pressure should be in the range of 140-179 and/or 90-104 mm Hg (mean of two measurements according to standardised procedures [1999 World Health Organization (WHO)—International Society of Hypertension Guidelines for the Management of Hypertension. Journal of Hypertension 1999; 17; 151-83] and at two visits) on placebo treatment and after the patients had been subjected to non-pharmacological treatment, as recommended [The Swedish Council on Technology Assessment in Health Care (SBU). Moderately elevated blood pressure. J Intern Med 1995; 238(Suppl 737): S1-S128; 1999 World Health Organization (WHO)—International Society of Hypertension Guidelines for the Management of Hypertension. Journal of Hypertension 1999; 17; 151-83] for one month or longer. Since the non-pharmacological intervention had been introduced before the start of the study and then maintained, its effect on metabolic variables during the study was minimal.
# as §2
# (§3) Efficacy variables were analysed using analysis of covariance (ANCOVA) with treatment and health centre as factors and baseline value as covariate. Difference in treatment effect was estimated with 95% confidence interval. To test difference between treatments in change of biochemistry variables the Wilcoxon Rank Sum test was used. […] In this approach all randomised patients who had completed the study and had taken at least one dose of study drug were included.
# [3] = Clinical study: fasting serum insulin and plasma glucose; format: in vivo, patients; details: for P-glucose, At 12 months / S-insulin, At 12 months / S-insulin/P-glucose, At 12 months: at 12 months of treatment; for P-glucose, At 12 months / S-insulin, At 12 months / P-glucose, Baseline / S-insulin, Baseline: fasting; for P-glucose, At 12 months / S-insulin, At 12 months / S-insulin/P-glucose, At 12 months / P-glucose, Baseline / S-insulin, Baseline / S-insulin/P-glucose, Baseline / P-glucose, Mean change at 12 months / S-insulin, Mean change at 12 months / S-insulin/P-glucose, Mean change at 12 months: mean (SD); for P-glucose, Baseline / S-insulin, Baseline / S-insulin/P-glucose, Baseline: baseline (before randomised treatment); for P-glucose, Mean change at 12 months / S-insulin, Mean change at 12 months / S-insulin/P-glucose, Mean change at 12 months: change from baseline to 12 months; for Fasting levels of both serum insulin and plasma glucose during treatment: result in words, 12 months treatment
# Description: The fasting plasma glucose level is defined as the concentration of glucose in the plasma of a subject after an overnight's fast. Patients were instructed not to eat breakfast on the morning of the follow-up visits.
# as §1, §2
# Analyses of plasma glucose were carried out at the Department of Clinical Chemistry, Umeå University Hospital. Plasma glucose was routinely analysed by Vitros 950 glucose oxidase method (Ortho Clinical Diagnostics).
# as §3
# [4] = Clinical study: plasma triglycerides; format: in vivo; details: individual patients of the candesartan cilexetil group with metabolic syndrome at baseline but not after 12 months
# Description: as §1
# After four weeks of single-blind treatment with placebo, the patients were randomised to double-blind treatment with either candesartan cilexetil 16 mg or hydrochlorothiazide 25 mg and followed for one year. If sitting systolic or diastolic blood pressure was above target pressure (<130/<85 mmHg, for patients below 65 years, or <140/<90 mmHg, if 65 years or older) [1999 World Health Organization (WHO)—International Society of Hypertension Guidelines for the Management of Hypertension. […]
# Total plasma cholesterol, LDL-cholesterol, HDL-cholesterol and triglycerides were determined in all patients at randomisation (n=392), and in most patients after six months (n=354), and after 12 months (n=352). Total plasma cholesterol and triglycerides concentrations were determined enzymatically. HDL-cholesterol was measured after the precipitation of apolipoprotein B-containing lipoproteins in whole plasma by heparin-manganese chloride [Lipid Research Clinics Program: Manual of Laboratory Operations, Bethesda, Md.: National Institutes of Health, Vol 1. […] Their LDL cholesterol levels were not calculated.
# [5] = at 6 months, hypertensive patients, candesartan cilexetil 16 mg (+ felodipine if needed) or HCTZ 25 mg (+ atenolol if needed)
compound,measurement,setting,value
"CCOc1nc2cccc(C(=O)OC(C)OC(=O)OC3CCCCC3)c2n1Cc1ccc(-c2ccccc2-c2nn[nH]n2)cc1 (centres unmarked) [Candesartan cilexetil, candesartan cilexetil]",patients suffering from the metabolic syndrome as defined by WHO,[1]; at base-line,13 patients
same,patients who attained a blood pressure <140/<90 mm Hg,[2],65%
same,"SBP, mean change",[2]; [5],−20.9 (13.1) mm Hg
same,"DBP, mean change","[2]; at 6 months, same regimens",−12.8 (6.9) mm Hg
same,"Heart rate, mean change","[2]; at 6 months, same regimens",−2.1 (8.4) bpm
same,"DBP, mean change","[2]; at 12 months, same regimens",−13.0 (7.4) mm Hg
same,"Heart rate, mean change","[2]; at 12 months, same regimens",−2.2 (8.4) bpm
same,"SBP, mean change","[2]; at 12 months, same regimens",−21.0 (15.2) mm Hg
same,"P-glucose, At 12 months",[3],5.10 (0.57) mmol/L
same,"S-insulin, At 12 months",[3],8.96 (5.42) mlU/L
same,"S-insulin/P-glucose, At 12 months",[3],1.76 (1.06)
same,"P-glucose, Baseline",[3],5.17 (0.58) mmol/L
same,"S-insulin, Baseline",[3],9.25 (7.90) mlU/L
same,"S-insulin/P-glucose, Baseline",[3],1.77 (1.38)
same,"P-glucose, Mean change at 12 months",[3],−0.06 (0.46) mmol/L
same,"S-insulin, Mean change at 12 months",[3],−0.30 (6.50) mlU/L
same,"S-insulin/P-glucose, Mean change at 12 months",[3],−0.00 (1.23)
same,"Fasting glucose, 12 months","[3]; individual patients 1-8 of the candesartan cilexetil group with metabolic syndrome at baseline but not after 12 months, after 12 months",5.5 mmol/L and 5.7 mmol/L (2×) and 5.6 mmol/L and 5.2 mmol/L and 6.0 mmol/L and 5.9 mmol/L
same,"Fasting glucose, Baseline","[3]; individual patients 1-8 of the candesartan cilexetil group with metabolic syndrome at baseline but not after 12 months, baseline",6.1 mmol/L and 6.5 mmol/L and 6.2 mmol/L (4×) and 6.4 mmol/L
same,Fasting levels of both serum insulin and plasma glucose during treatment,[3],unaffected
same,"Triglycerides, 12 months",[4]; after 12 months,1.59 mmol/L and 1.44 mmol/L and 1.28 mmol/L
same,"Triglycerides, Baseline",[4]; baseline,2.15 mmol/L and 2.34 mmol/L and 2.65 mmol/L
"NS(=O)(=O)c1cc2c(cc1Cl)NCNS2(=O)=O [HCTZ, hydrochlorothiazide]",patients suffering from the metabolic syndrome as defined by WHO,"[1]; at 12 months, p=0.007 between groups",18 patients
same,patients suffering from the metabolic syndrome as defined by WHO,[1]; at base-line,12 patients
same,patients who attained a blood pressure <140/<90 mm Hg,[2],62%
same,"SBP, mean change",[2]; [5],−23.9 (13.0) mm Hg
same,"DBP, mean change","[2]; at 6 months, same regimens",−13.9 (7.1) mm Hg
same,"Heart rate, mean change","[2]; at 6 months, same regimens",−6.8 (10.1) bpm
same,"DBP, mean change","[2]; at 12 months, same regimens",−12.9 (7.7) mm Hg
same,"Heart rate, mean change","[2]; at 12 months, same regimens",−7.3 (9.4) bpm
same,"SBP, mean change","[2]; at 12 months, same regimens",−22.8 (14.9) mm Hg
same,"P-glucose, At 12 months",[3],5.42 (0.89) mmol/L
same,"S-insulin, At 12 months",[3],11.00 (6.88) mlU/L
same,"S-insulin/P-glucose, At 12 months",[3],2.03 (1.23)
same,"P-glucose, Baseline",[3],5.29 (0.98) mmol/L
same,"S-insulin, Baseline",[3],9.65 (6.09) mlU/L
same,"S-insulin/P-glucose, Baseline",[3],1.83 (1.10)
same,"P-glucose, Mean change at 12 months",[3],0.13 (0.69) mmol/L
same,"S-insulin, Mean change at 12 months",[3],1.35 (6.09) mlU/L
same,"S-insulin/P-glucose, Mean change at 12 months",[3],0.20 (1.13)
same,Fasting levels of both serum insulin and plasma glucose during treatment,[3],increased
